Experimental data published in patent US20100087385A1 (priority 2006, published 2010).

Legend:
[1] = test system: IBD mice (colon injury induced by acetic acid); test: Experiment II: acetic acid induced IBD in mice, ammonium glycyrrhizinate; type: in vivo, Kuming mice; conditions: for GSH / MPO / MDA / SOD: colon homogenate; for GSH / MPO / MDA / SOD / CMDI: once per day, 10 days; for GSH: normal 0.58 ± 0.12, model 0.16 ± 0.09; for MPO: normal 3.37 ± 0.31, model 1.33 ± 0.83; for MDA: normal 10.58 ± 2.74, model 26.2 ± 5.5; for SOD: normal 707 ± 105, model 309 ± 68; for CMDI: normal 0.73 ± 0.03, model 1.75 ± 0.35
Experimental: Kuming mice were randomly distributed into seven groups consisting of normal control, model group, Adis positive control, monoammonium glycyrrhizinate oral administration, diammonium glycyrrhizinate oral administration, triammonium glycyrrhizinate oral administration, diammonium glycyrrhizinate injection. In Adis group, mice were provided Adis 600 mg/kg after enema, once a day. In glycyrrhizinate oral administration groups, 14 mg/kg dose of individual glycyrrhizinate was applied once per day. Normal control and model group were orally given by equal amount of normal saline daily. After seven days drug treatment, all mice except for normal control were stimulated with acetic acid to induce IBD. On day six, starvation was applied after drug treatment to all groups. On day seven, after drug treatment, mice were put to sleep with ether and the procedure of enema was performed before injecting 0.1 ml of 6% acitic acid using polyethylene tubings. Acitic acid was injected into mice through anus in depth about 1.5 cm to induce IBD. One minute after the actic acid injection, wash twice with normal saline and let the animals lie down and awake naturally. For normal control, mice were treated with equal amount of saline. Drug treatment continued to day 10 to all groups. 24 hours after the last drug treatment, the mice were sacrificed. Take and weight the whole colon, score colon organ index, and evaluate CMDI. Colon tissues were homogenized in Tris buffer and adjusted to the concentration 5% for MPO, MDA, SOD, and GSH tests.
(§1) CMDI: Cut open the mouse along the mesentery and take the whole colon. Observe peritoneal adhesion, colon ulcer, and congestion. The standard of evaluation was listed on Table 1.
(§2) Myeloperoxidase (MPO): Carefully weight tissue samples, use Tris buffer (weight to volume ratio 1:19) to prepare 5% homogenization solution by high-speed homogenizer. Handle all steps on ice. Protein concentration was determined by method Lowry and use MPO test kit.
(§3) Lipid peroxidase (MDA): TBA was used to detect MDA in the homogenization solution
Superoxide dismutase (SOD): Method of pyrogallol was used to detect the activity of SOD in the homogenization solution
(§4) Glutathione (GSH): Follow the product insert coming with the test kit to detect GSH in the samples
The total score is combined with both parts of A and B.

[2] = test system: IBD mice (colon injury induced by acetic acid); test: Experiment I: acetic acid induced IBD in mice, glycyrrhizin and glycyrrhetinic acid; type: in vivo, KuMing mice; conditions: glycyrrhizin 105 mg/kg, glycyrrhetinic acid 72 mg/kg; for Inflammatory score / CMDI / GSH / MPO / MDA / SOD: once per day, 10 days; for Inflammatory score: normal 0, model 7.50 ± 0.7; for CMDI: normal 0.73 ± 0.03, model 1.75 ± 0.35; for GSH / MPO / MDA / SOD: colon homogenate; for GSH: normal 0.58 ± 0.12, model 0.16 ± 0.09; for MPO: normal 3.37 ± 0.31, model 1.33 ± 0.83; for MDA: normal 10.58 ± 2.74, model 26.2 ± 5.5; for SOD: normal 707 ± 105, model 309 ± 68; for CMDI of IBD mice decreased / MPO activity increased / inflammatory scores were lowered: once per day for ten days
Experimental: In Adis group, mice were provided Adis 600 mg/kg afer enema, once per day. Normal control and model groups were orally given with equal amount of normal saline daily. After seven days drug treatment, all mice except for normal control were stimulated with acetic acid to induce IBD. On day six, starvation was applied after drug treatment to all groups. On day seven, after drug treatment, mice were put to sleep with ether and the procedure of enema was performed before injecting 0.1 ml of 6% acitic acid using polyethylene tubings. Acitic acid was injected into mice through anus in depth about 1.5 cm to induce IBD. One minute after the actic acid injection, wash twice with normal saline and let the animals lay down and awake naturally. For normal control, mice were treated with equal amount of saline.
Drug treatment continued to day 10 to all groups. 24 hours after the last drug treatment, the mice were sacrificed. Take and weight the whole colon, score colon organ index, and evaluate CMDI. Colon tissues were homogenized in Tris buffer and adjusted to the concentration 5% for MPO, MDA, SOD, and GSH tests.
as §1, §2, §3
Superoxide dismutas (SOD): Method of pyrogallol was used to detect the activity of SOD in the homogenization solution
as §4
The total score is combined with both parts of A with B.

[3] = oral 14 mg/kg, once per day for ten days
[4] = injection (IP.) 14 mg/kg, once per day for ten days

SMILES	GSH ([1]; oral 14 mg/kg)	MPO ([1]; oral 14 mg/kg)	MDA ([1]; oral 14 mg/kg)	SOD ([1]; oral 14 mg/kg)	CMDI of IBD mice decreased [1, 3] [%]	MPO activity increased [1, 3] [×]	inflammatory scores were lowered [1, 3] [×]	CMDI ([1]; oral 14 mg/kg)	CMDI ([2]; IP injection)	GSH ([2]; IP injection)	MPO ([2]; IP injection)	MDA ([2]; IP injection)	GSH ([2]; oral)	MPO ([2]; oral)	MDA ([2]; oral)	CMDI of IBD mice decreased ([2]; injection (IP)) [%]	MPO activity increased ([2]; injection (IP)) [×]	inflammatory scores were lowered ([2]; injection (IP)) [×]	CMDI of IBD mice decreased ([2]; oral) [%]	MPO activity increased ([2]; oral) [×]	also measured
CC1(C)[C@@H](O[C@H]2O[C@H](C(=O)O)[C@@H](O)[C@H](O)[C@H]2O[C@@H]2O[C@H](C(=O)O)[C@@H](O)[C@H](O)[C@H]2O)CC[C@]2(C)[C@H]3C(=O)C=C4[C@@H]5C[C@@](C)(C(=O)O)CC[C@]5(C)CC[C@@]4(C)[C@]3(C)CC[C@@H]12 [triammonium glycyrrhizinate]	0.26 ± 0.09^ΔΔ mg/mgpro.	1.59 ± 0.94^ΔΔ U/mgpro.	16.88 ± 5.97^ΔΔ nmol/mgpro.	368 ± 79^ΔΔ U/mgpro.	14.9	0.20	1.5	1.49 ± 0.08^ΔΔ g/100 g													
CC1(C)[C@@H](O[C@H]2O[C@H](C(=O)O)[C@@H](O)[C@H](O)[C@H]2O[C@@H]2O[C@H](C(=O)O)[C@@H](O)[C@H](O)[C@H]2O)CC[C@]2(C)[C@H]3C(=O)C=C4[C@@H]5C[C@@](C)(C(=O)O)CC[C@]5(C)CC[C@@]4(C)[C@]3(C)CC[C@@H]12.N.N [diammonium glycyrrhizinate]	0.49 ± 0.14^ΔΔ mg/mgpro.	2.93 ± 0.26^ΔΔ U/mgpro.	8.32 ± 5.04^ΔΔ nmol/mgpro.	505 ± 132^ΔΔ U/mgpro.	39.4	1.20	1.73	1.06 ± 0.31^ΔΔ g/100 g													GSH ([1]; injection 14 mg/kg): 0.27 ± 0.13^ΔΔ mg/mgpro.; MPO ([1]; injection 14 mg/kg): 3.55 ± 0.45^ΔΔ U/mgpro.; MDA ([1]; injection 14 mg/kg): 7.85 ± 3.55^ΔΔ nmol/mgpro.; SOD ([1]; injection 14 mg/kg): 533 ± 101^ΔΔ U/mgpro.; CMDI ([1]; injection 14 mg/kg): 0.97 ± 0.18^ΔΔ g/100 g; CMDI of IBD mice decreased [1, 4]: 45.7%; MPO activity increased [1, 4]: 1.67 ×; inflammatory score was lowered [1, 4]: 2.75 ×
CC1(C)[C@@H](O[C@H]2O[C@H](C(=O)O)[C@@H](O)[C@H](O)[C@H]2O[C@@H]2O[C@H](C(=O)O)[C@@H](O)[C@H](O)[C@H]2O)CC[C@]2(C)[C@H]3C(=O)C=C4[C@@H]5C[C@@](C)(C(=O)O)CC[C@]5(C)CC[C@@]4(C)[C@]3(C)CC[C@@H]12.N [monoammonium glycyrrhizinate]	0.32 ± 0.12^ΔΔ mg/mgpro.	2.99 ± 0.26^ΔΔ U/mgpro.	16.14 ± 5.81^ΔΔ nmol/mgpro.	412 ± 112^ΔΔ U/mgpro.	14.3	1.25	1.5	1.50 ± 0.03^Δ g/100 g													
CC1(C)[C@@H](O[C@H]2O[C@H](C(=O)O)[C@@H](O)[C@H](O)[C@H]2O[C@@H]2O[C@H](C(=O)O)[C@@H](O)[C@H](O)[C@H]2O)CC[C@]2(C)[C@H]3C(=O)C=C4[C@@H]5C[C@@](C)(C(=O)O)CC[C@]5(C)CC[C@@]4(C)[C@]3(C)CC[C@@H]12 [Glycyrrhizin, glycyrrhizic acid]									0.88 ± 0.18^ΔΔ g/100 g	0.36 ± 0.09^ΔΔ mg/mgpro.	5.59 ± 0.94^ΔΔ U/mgpro.	5.08 ± 1.91^ΔΔ nmol/mgpro.	0.33 ± 0.22^ΔΔ mg/mgpro.	5.09 ± 0.29^ΔΔ U/mgpro.	6.04 ± 0.89^ΔΔ nmol/mgpro.	98.86	3.20	4	82.3	2.83	Inflammatory score ([2]; IP injection): 1.5 ± 0.41^ΔΔ; Inflammatory score ([2]; IP injection, listed as glycyrrhizin): 1.5; SOD ([2]; IP injection): 467 ± 49^ΔΔ U/mgpro.; SOD ([2]; oral): 425 ± 12^ΔΔ U/mgpro.; inflammatory scores were lowered ([2]; oral): 4 ×; Inflammatory score ([2]; oral): 1.5 ± 0.31^ΔΔ; Inflammatory score ([2]; oral, listed as glycyrrhizin): 1.5; CMDI ([2]; oral): 0.96 ± 0.03^ΔΔ g/100 g
CC1(C)C2CC[C@]3(C)C(C(=O)C=C4C5C[C@@](C)(C(=O)O)CC[C@]5(C)CCC43C)[C@@]2(C)CC[C@@H]1O (some centres unmarked) [glycyrrhetinic acid]									1.07 ± 0.28^ΔΔ g/100 g	0.31 ± 0.08^ΔΔ mg/mgpro.	4.51 ± 0.35^ΔΔ U/mgpro.	5.85 ± 1.33^ΔΔ nmol/mgpro.	0.31 ± 0.08^ΔΔ mg/mgpro.	3.48 ± 0.46^ΔΔ U/mgpro.	4.56 ± 2.28^ΔΔ nmol/mgpro.	63.55	2.39	2.75	57.65	1.62	CMDI ([2]; oral): 1.11 ± 0.41^ΔΔ g/100 g
